This note sets out measurements from US20230123334A1, “AMINO LIPID COMPOUND, PREPARATION METHOD THEREFOR, AND APPLICATION THEREOF” (SHENZHEN SHENXIN BIOTECHNOLOGY CO., LTD., priority 2020, published 2023).

Structures are written as SMILES.

The first assay deals with MCF7 cells. Kind of assay: Transfection of MCF7 cell line, DNA vectors. It is filed as cell-based. More on the design: concentration or dose not given beside the values. As to conditions: plasmid DNA, GFP cells / total cells. In a few lines: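 MCF7 cells in DMEM with fetal bovine serum were transfected in 96-well format. Read-out was the percentage of GFP-fluorescent cells among total cells counted by Hoechst nuclear stain. Lipofectamine2000 served as positive control.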
On to `CCCCCCCCCCCCSc1nc(NCCN2CCCC2)nc(SCCCCCCCCC)n1` [Compound S9S12D3], for which the “Absolute DNA transfection efficiency in MCF7 cells” value is on record as 3.0%.
On to `CCCCCCCCCCCCSc1nc(NCCN2CCN(C)CC2)nc(SCCCCCCCCC)n1` [Compound S9S12D5], for which the “Absolute DNA transfection efficiency in MCF7 cells” value was 32.0%.
Turning to `CCCCCCCCCCCSc1nc(NCCCCCCCC)nc(NCCCN2CCOCC2)n1` [Compound S11N8D8], the “Absolute DNA transfection efficiency in MCF7 cells” value is listed as 0.1%.
In the case of `CCCCCCCCCCCSc1nc(NCCCCCCCC)nc(NCCCN2CCN(C)CC2)n1` [Compound S11N8D9], the “Absolute DNA transfection efficiency in MCF7 cells” value is listed as 20.9%.
With `CCCCCCCCCCCSc1nc(NCCCCCCCC)nc(NCC2CCN(C)CC2)n1` [Compound S11N8D10], the “Absolute DNA transfection efficiency in MCF7 cells” value came to 25.6%.

In another assay the test system is MCF7 cells. The assay can be described thus: Transfection of MCF7 cell line, mRNA vectors. It is filed as cell-based. The conditions noted are these: 50 ng EGFP mRNA per well. In a few lines: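 MCF7 cells in DMEM with fetal bovine serum were transfected with 50 ng EGFP mRNA per well. Read-out was the percentage of GFP-positive cells among total Hoechst-stained nuclei, with Lipofectamine2000 as positive control.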
For the compound `CCCCCCCCCCCCSc1nc(NCCN2CCCC2)nc(SCCCCCCCCC)n1` [Compound S9S12D3], the “Absolute mRNA transfection efficiency in MCF7 cells” value is 6.5%.
Consider `CCCCCCCCCCCCSc1nc(NCCN2CCN(C)CC2)nc(SCCCCCCCCC)n1` [Compound S9S12D5], for which the “Absolute mRNA transfection efficiency in MCF7 cells” value is listed as 27.3%.
With `CCCCCCCCCCCSc1nc(NCCCCCCCC)nc(NCCCN2CCOCC2)n1` [Compound S11N8D8], the “Absolute mRNA transfection efficiency in MCF7 cells” value amounted to 7.8%.
For the compound `CCCCCCCCCCCSc1nc(NCCCCCCCC)nc(NCCCN2CCN(C)CC2)n1` [Compound S11N8D9], the “Absolute mRNA transfection efficiency in MCF7 cells” value turned out to be 42.3%.
Turning to `CCCCCCCCCCCSc1nc(NCCCCCCCC)nc(NCC2CCN(C)CC2)n1` [Compound S11N8D10], the “Absolute mRNA transfection efficiency in MCF7 cells” value amounted to 38.9%.

For the next assay, the system named is Hela cells. Kind of assay: Transfection of Hela cell line, DNA vectors. It is filed as cell-based. The conditions noted are these: 75 ng plasmid DNA, GFP cells / total cells. In a few lines:
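Amino lipid/DOPE liposomes in sodium acetate pH 5.6 were complexed with 75 ng psin-EGFP-IRES-Puro plasmid for 30 min at room temperature, then mixed with 3-5×10^4 Hela cells in DMEM/10% FBS at 37° C. Hoechst stain after 20-24 h, imaging after a further 20-24 h. Efficiency = GFP-positive cells / total nuclei.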
`CCCCCCCCCCCCSc1nc(NCCN2CCCC2)nc(SCCCCCCCCC)n1` [Compound S9S12D3]: the “Absolute DNA transfection efficiency in Hela cells” value was found to be 2.4%.
Same read-out and setting: then `CCCCCCCCCCCCSc1nc(NCCN2CCN(C)CC2)nc(SCCCCCCCCC)n1` [Compound S9S12D5], with 10.8%; and `CCCCCCCCCCCSc1nc(NCCCCCCCC)nc(NCCCN2CCOCC2)n1` [Compound S11N8D8], with 6.1%.
For the compound `CCCCCCCCCCCSc1nc(NCCCCCCCC)nc(NCCCN2CCN(C)CC2)n1` [Compound S11N8D9], the “Absolute DNA transfection efficiency in Hela cells” value is given as 11.7%.
Take `CCCCCCCCCCCSc1nc(NCCCCCCCC)nc(NCC2CCN(C)CC2)n1` [Compound S11N8D10]: the “Absolute DNA transfection efficiency in Hela cells” value is 16.7%.

The test system of the next assay is HEK293 cells. The assay can be described thus: Preliminary screening as mRNA vectors, EGFP mRNA transfection of HEK293 cells. It is filed as cell-based. The conditions noted are these: HEK293 cells, 96-well plates, EGFP mRNA 50 ng per well; percentage of GFP fluorescent cells relative to total number of cells (Hoechst). In a few lines:
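Each well of HEK293 cells received 50 ng of EGFP mRNA. Efficiency was expressed as percent GFP-expressing cells over Hoechst-defined total cell number.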
Turning to `CCCCCCCCCCCCSc1nc(NCCN2CCCC2)nc(SCCCCCCCCC)n1` [Compound S9S12D3], the “Absolute mRNA transfection efficiency in HEK293 cells” value is 5.3%.
On to `CCCCCCCCCCCCSc1nc(NCCN2CCN(C)CC2)nc(SCCCCCCCCC)n1` [Compound S9S12D5], for which the “Absolute mRNA transfection efficiency in HEK293 cells” value came out at 57.5%.

For a further assay, the system named is embryonic stem cells (hESC2). Kind of assay: Screening as mRNA vectors in embryonic stem cells. The assay is classed as cell-based. The conditions noted are these: 50 ng EGFP mRNA per well. In a few lines:
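EGFP mRNA (50 ng per well) transfected into hESC2 cells grown in mTeSR1; Lipofectamine Stem served as positive control. Read-out: GFP-fluorescent cells as percentage of total cells.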
For the compound `CCCCCCCCCCCCSc1nc(NCCN2CCCC2)nc(SCCCCCCCCC)n1` [Compound S9S12D3], the “Absolute mRNA transfection efficiency in embryonic stem cells” value was determined as 21.4%.
For `CCCCCCCCCCCCSc1nc(NCCN2CCN(C)CC2)nc(SCCCCCCCCC)n1` [Compound S9S12D5], the “Absolute mRNA transfection efficiency in embryonic stem cells” value is 27.3%.
Still for that read-out and setting: then `CCCCCCCCCCCSc1nc(NCCCCCCCC)nc(NCCCN2CCOCC2)n1` [Compound S11N8D8], with 1.3%; and `CCCCCCCCCCCSc1nc(NCCCCCCCC)nc(NCCCN2CCN(C)CC2)n1` [Compound S11N8D9], with 34.8%.
As for `CCCCCCCCCCCSc1nc(NCCCCCCCC)nc(NCC2CCN(C)CC2)n1` [Compound S11N8D10], the “Absolute mRNA transfection efficiency in embryonic stem cells” value amounted to 35.4%.

A further assay concerns cardiomyocytes. Kind of assay: Screening as mRNA vectors in cardiomyocytes. The assay is classed as cell-based. The conditions noted are these: 50 ng EGFP mRNA per well. In a few lines:
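Cardiomyocytes differentiated from hESC, in DMEM with 10% FBS, were transfected with 50 ng EGFP mRNA per well. The read-out was GFP-positive cells as a percentage of Hoechst-stained nuclei, with Lipofectamine Stem as positive control.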
On to `CCCCCCCCCCCCSc1nc(NCCN2CCCC2)nc(SCCCCCCCCC)n1` [Compound S9S12D3], for which the “Absolute mRNA transfection efficiency in cardiomyocytes” value stood at 65.7%.
As for `CCCCCCCCCCCCSc1nc(NCCN2CCN(C)CC2)nc(SCCCCCCCCC)n1` [Compound S9S12D5], the “Absolute mRNA transfection efficiency in cardiomyocytes” value came to 1.2%.
As for `CCCCCCCCCCCSc1nc(NCCCCCCCC)nc(NCCCN2CCOCC2)n1` [Compound S11N8D8], the “Absolute mRNA transfection efficiency in cardiomyocytes” value turned out to be 0.9%.
As to `CCCCCCCCCCCSc1nc(NCCCCCCCC)nc(NCCCN2CCN(C)CC2)n1` [Compound S11N8D9], the “Absolute mRNA transfection efficiency in cardiomyocytes” value amounted to 25.8%.
For `CCCCCCCCCCCSc1nc(NCCCCCCCC)nc(NCC2CCN(C)CC2)n1` [Compound S11N8D10], the “Absolute mRNA transfection efficiency in cardiomyocytes” value is reported as 41.7%.

Another assay concerns embryonic stem cells (hESC2). The assay can be described thus: Screening as DNA vectors in embryonic stem cells, flow cytometry. The assay is classed as cell-based. As to conditions: 75 ng plasmid DNA, 48 hours after transfection, flow cytometer. In outline:
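hESC2 cells in mTeSR1 on matrigel transfected with 75 ng pSin-EGFP-IRES-Puro complexed with amino lipid/DOPE liposomes formed in sodium acetate pH 5.6; 37 °C, 5% CO2. After 48 h, GFP-positive cells counted by flow cytometry (≥2000 cells), efficiency also expressed relative to Lipofectamine Stem.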
As to `CCCCCCCCCCCCSc1nc(NCCN2CCCC2)nc(SCCCCCCCCC)n1` [Compound S9S12D3], the “Absolute DNA transfection efficiency in embryonic stem cells” value is given as 5.3%.
As for `CCCCCCCCCCCCSc1nc(NCCN2CCN(C)CC2)nc(SCCCCCCCCC)n1` [Compound S9S12D5], the “Absolute DNA transfection efficiency in embryonic stem cells” value amounted to 4.6%.
Regarding `CCCCCCCCCCCSc1nc(NCCCCCCCC)nc(NCCCN2CCOCC2)n1` [Compound S11N8D8], the “Absolute DNA transfection efficiency in embryonic stem cells” value was 0.0%.
As for `CCCCCCCCCCCSc1nc(NCCCCCCCC)nc(NCCCN2CCN(C)CC2)n1` [Compound S11N8D9], the “Absolute DNA transfection efficiency in embryonic stem cells” value turned out to be 3.6%.
Take `CCCCCCCCCCCSc1nc(NCCCCCCCC)nc(NCC2CCN(C)CC2)n1` [Compound S11N8D10]: the “Absolute DNA transfection efficiency in embryonic stem cells” value came to 12.6%.

The test system of a further assay is cardiomyocytes. The assay can be described thus: Screening as DNA vectors in cardiomyocytes. Also noted: concentration or dose not given beside the values. The conditions noted are these: method as Example 4. The assay is classed as cell-based. In a few lines:
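hESC-derived cardiomyocytes in DMEM with 10% FBS were transfected with a GFP DNA vector; Lipofectamine Stem served as positive control. Read-out: percentage of GFP-positive cells relative to total cells counted by Hoechst nuclear stain.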
Regarding `CCCCCCCCCCCCSc1nc(NCCN2CCCC2)nc(SCCCCCCCCC)n1` [Compound S9S12D3], the “Absolute DNA transfection efficiency in cardiomyocytes” value turned out to be 2.7%.
For `CCCCCCCCCCCCSc1nc(NCCN2CCN(C)CC2)nc(SCCCCCCCCC)n1` [Compound S9S12D5], the “Absolute DNA transfection efficiency in cardiomyocytes” value came to 1.7%.
`CCCCCCCCCCCSc1nc(NCCCCCCCC)nc(NCCCN2CCOCC2)n1` [Compound S11N8D8]: the “Absolute DNA transfection efficiency in cardiomyocytes” value is given as 1.2%.
On the same count and under the same terms, the result for `CCCCCCCCCCCSc1nc(NCCCCCCCC)nc(NCCCN2CCN(C)CC2)n1` [Compound S11N8D9] reads 0.1%.
The same measure, in the same setting: then `CCCCCCCCCCCSc1nc(NCCCCCCCC)nc(NCC2CCN(C)CC2)n1` [Compound S11N8D10], with 6.6%.

The test system of a further assay is HEK293 cells. Kind of assay: Preliminary screening as DNA vectors, GFP transfection of HEK293 cells. It is filed as cell-based. The conditions noted are these: HEK293 cells; lipid/DOPE liposome with 75 ng plasmid DNA (psin-EGFP-IRES-Puro); number of cells expressing GFP divided by total number of nuclei (Hoechst). In outline:
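Lipid + DOPE liposomes (NaOAc, pH 5.6) complexed w/ 75 ng psin-EGFP-IRES-Puro, 30 min RT; added to 3-5×10^4 HEK293/well, 37° C. Hoechst 0.2 μg/mL at 20-24 h, imaged after further 20-24 h. Efficiency = GFP+ cells / total nuclei.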
For the compound `CCCCCCCCCCCCSc1nc(NCCN2CCCC2)nc(SCCCCCCCCC)n1` [Compound S9S12D3], the “Absolute DNA transfection efficiency in HEK293 cells” value stood at 4.9%.
For the compound `CCCCCCCCCCCCSc1nc(NCCN2CCN(C)CC2)nc(SCCCCCCCCC)n1` [Compound S9S12D5], the “Absolute DNA transfection efficiency in HEK293 cells” value was 21.0%.

A further assay deals with Hela cells. The assay can be described thus: Transfection of Hela cell line, mRNA vectors. As to conditions: 50 ng EGFP mRNA per well. It is filed as cell-based. In outline: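 HeLa cells in DMEM with 10% FBS transfected with 50 ng EGFP mRNA per well. Readout is percentage of GFP-positive cells among total cells counted by Hoechst nuclear stain; Lipofectamine2000 served as positive control.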
For `CCCCCCCCCCCCSc1nc(NCCN2CCCC2)nc(SCCCCCCCCC)n1` [Compound S9S12D3], the “Absolute mRNA transfection efficiency in Hela cells” value is 2.4%.
For `CCCCCCCCCCCCSc1nc(NCCN2CCN(C)CC2)nc(SCCCCCCCCC)n1` [Compound S9S12D5], the “Absolute mRNA transfection efficiency in Hela cells” value is reported as 10.8%.
Turning to `CCCCCCCCCCCSc1nc(NCCCCCCCC)nc(NCCCN2CCOCC2)n1` [Compound S11N8D8], the “Absolute mRNA transfection efficiency in Hela cells” value was 6.1%.
On to `CCCCCCCCCCCSc1nc(NCCCCCCCC)nc(NCCCN2CCN(C)CC2)n1` [Compound S11N8D9], for which the “Absolute mRNA transfection efficiency in Hela cells” value is 11.9%.
For `CCCCCCCCCCCSc1nc(NCCCCCCCC)nc(NCC2CCN(C)CC2)n1` [Compound S11N8D10], the “Absolute mRNA transfection efficiency in Hela cells” value is 16.7%.
